Read-outs that look alike come from different tables or passages of the source.
How the values were obtained:
[1] = test system: crabgrass; assay: Example 1: pot test, foliar treatment, visually observed growth inhibition of crabgrass; format: in vivo
Source text: (§1) When the herbicidal activity in a case where two active ingredients are combined, is larger than the simple sum of the respective herbicidal activities of the two active ingredients (the expected activity), it is called a synergistic effect. The activity expected by the combination of two active ingredients can be calculated as follows (Colby S. R., “Weed”, vol. 15, p. 20-22, 1967). E=α+β−(α×β+100) where
(§2) α: growth inhibition rate when treated with x (g/ha) of herbicide X,
(§3) β: growth inhibition rate when treated with y (g/ha) of herbicide Y,
(§4) E: growth inhibition rate expected when treated with x (g/ha) of herbicide X and y (g/ha) of herbicide Y.
(§5) That is, when the actual growth inhibition rate (measured value) is larger than the growth inhibition rate by the above calculation (calculated value), the activity by the combination can be regarded as showing a synergistic effect.
(§6) Upland field soil was put into a 1/1,000,000 hectare pot, and seeds of various plants were sown. When the respective plants reached predetermined leaf stage, herbicidal compositions in predetermined amounts were diluted with water in an amount corresponding to 300 L/ha and applied for foliar treatment by a small sprayer.
(§7) Further, in accordance with the above Colby's formula, the growth inhibition rate (calculated value) was calculated. In Tables, with respect to the compound A, Compound Nos. in Table 1 or 3 are described, and with respect to other herbicidal compounds, common names are described.

[2] = test system: velvetleaf; assay: Example 1: pot test, foliar treatment, visually observed growth inhibition of velvetleaf; format: in vivo, Abutilon theophrasti MEDIC.
Source text: as §1, §2, §3, §4, §5, §6, §7

[3] = 3.0 to 4.3 leaf stage, 21st day after application, 100 g/ha
[4] = 3.8 to 4.4 leaf stage, 21st day after application, 3.5 g/ha
[5] = 3.5 to 4.3 leaf stage, 21st day after application, 3.5 g/ha

For `NCCO.O=C(O)c1nc(Cl)ccc1Cl` [Clopyralid-olamine], the “Growth inhibition rate (%) of crabgrass, Measured value” [1, 3] was 0%, the “Growth inhibition rate (%) of velvetleaf, Measured value” ([2]; 3.3 to 4.3 leaf stage, 20th day after application, 150 g/ha) was 5% and the “Growth inhibition rate (%) of velvetleaf, Measured value” ([2]; 3.3 to 4.3 leaf stage, 20th day after application, 300 g/ha) was 10%. The “Growth inhibition rate (%) of velvetleaf, Measured value” ([2]; 3.5 to 4.1 leaf stage, 14th day after application, 150 g/ha) was 20% and the “Growth inhibition rate (%) of velvetleaf, Measured value” ([2]; 3.5 to 4.1 leaf stage, 14th day after application, 300 g/ha) was 20%.
For `CNC.COc1c(Cl)ccc(Cl)c1C(=O)O` [Dicamba-dimethylammonium], the “Growth inhibition rate (%) of crabgrass, Measured value” [1, 3] was 0%, the “Growth inhibition rate (%) of crabgrass, Measured value” ([1]; 3.0 to 4.3 leaf stage, 21st day after application, 200 g/ha) was 0% and the “Growth inhibition rate (%) of crabgrass, Measured value” ([1]; 3.5 to 5.0 leaf stage, 22nd day after application, 100 g/ha) was 0%. The “Growth inhibition rate (%) of crabgrass, Measured value” ([1]; 3.5 to 5.0 leaf stage, 22nd day after application, 200 g/ha) was 0%, the “Growth inhibition rate (%) of crabgrass, Measured value” ([1]; 3.7 to 4.6 leaf stage, 21st day after application, 100 g/ha) was 0% and the “Growth inhibition rate (%) of crabgrass, Measured value” ([1]; 3.7 to 4.6 leaf stage, 21st day after application, 200 g/ha) was 15%. The “Growth inhibition rate (%) of velvetleaf, Measured value” ([2]; 2.0 to 2.8 leaf stage, 21st day after application, 100 g/ha) was 50%, the “Growth inhibition rate (%) of velvetleaf, Measured value” ([2]; 2.0 to 2.8 leaf stage, 21st day after application, 200 g/ha) was 55% and the “Growth inhibition rate (%) of velvetleaf, Measured value” ([2]; 3.0 to 3.8 leaf stage, 28th day after application, 100 g/ha) was 50%. For the same compound, the “Growth inhibition rate (%) of velvetleaf, Measured value” ([2]; 3.2 to 5.0 leaf stage, 14th day after application, 100 g/ha) was 50%, the “Growth inhibition rate (%) of velvetleaf, Measured value” ([2]; 3.2 to 5.0 leaf stage, 21st day after application, 100 g/ha) was 50% and the “Growth inhibition rate (%) of velvetleaf, Measured value” ([2]; 3.5 to 4.3 leaf stage, 21st day after application, 100 g/ha) was 50%.
For `CC(C)N(C(=O)COc1nnc(C(F)(F)F)s1)c1ccc(F)cc1` [Flufenacet], the inhibition at 150 g/ha ([1]; Digitaria sanguinalis, foliar, 3.0 to 4.3 leaf stage, 21st day after application, 150 g/ha, read-out: Growth inhibition rate (%) of crabgrass, Measured value) was 0%, the inhibition at 300 g/ha ([1]; Digitaria sanguinalis, foliar, 3.0 to 4.3 leaf stage, 21st day after application, read-out: Growth inhibition rate (%) of crabgrass, Measured value) was 5% and the inhibition at 300 g/ha ([1]; Digitaria sanguinalis, foliar, 3.2 to 4.3 leaf stage, 21st day after application, read-out: Growth inhibition rate (%) of crabgrass, Measured value) was 10%. The inhibition at 300 g/ha ([2]; Abutilon theophrasti, foliar, 3.2 to 4.3 leaf stage, 21st day after application, 300 g/ha, read-out: Growth inhibition rate (%) of velvetleaf, Measured value) was 0%.
`CON(C)C(=O)Nc1ccc(Cl)c(Cl)c1` [Linuron] gave an inhibition at 250 g/ha ([1]; Digitaria sanguinalis, foliar, 3.5 to 4.2 leaf stage, 14th day after application, 250 g/ha, read-out: Growth inhibition rate (%) of crabgrass, Measured value) of 20%, an inhibition at 500 g/ha ([1]; Digitaria sanguinalis, foliar, 3.5 to 4.2 leaf stage, 14th day after application, 500 g/ha, read-out: Growth inhibition rate (%) of crabgrass, Measured value) of 35% and an inhibition at 250 g/ha ([2]; Abutilon theophrasti, foliar, 3.3 to 4.3 leaf stage, 20th day after application, 250 g/ha, read-out: Growth inhibition rate (%) of velvetleaf, Measured value) of 55%. For the same compound, the inhibition at 500 g/ha ([2]; Abutilon theophrasti, foliar, 3.3 to 4.3 leaf stage, 20th day after application, 500 g/ha, read-out: Growth inhibition rate (%) of velvetleaf, Measured value) was 93%.
`COC(=O)c1c(S(C)(=O)=O)ccc(C(=O)c2cnn(C)c2O)c1C` [No. 2-1] was tested, and the “Growth inhibition rate (%) of crabgrass, Measured value” [1, 4] was 45% and the “Growth inhibition rate (%) of velvetleaf, Measured value” [2, 5] was 30%.
In the case of `CCOc1c(S(C)(=O)=O)ccc(C(=O)c2cnn(C)c2O)c1C` [No. 2-19], the “Growth inhibition rate (%) of crabgrass, Measured value” ([1]; 3.8 to 5.2 leaf stage, 21st day after application, 7 g/ha) is reported as 30%, the “Growth inhibition rate (%) of velvetleaf, Measured value” ([2]; 3.2 to 5.0 leaf stage, 14th day after application, 7 g/ha) is reported as 60% and the “Growth inhibition rate (%) of velvetleaf, Measured value” ([2]; 3.2 to 5.0 leaf stage, 21st day after application, 7 g/ha) is reported as 50%.
`COCCOc1c(S(C)(=O)=O)ccc(C(=O)c2cnn(C)c2O)c1C` [No. 2-28] was tested, and the “Growth inhibition rate (%) of crabgrass, Measured value” ([1]; 3.5 to 5.0 leaf stage, 22nd day after application, 7 g/ha) was 88%, the “Growth inhibition rate (%) of crabgrass, Measured value” ([1]; 3.5 to 5.0 leaf stage, 22nd day after application, 15 g/ha) was 93% and the “Growth inhibition rate (%) of crabgrass, Measured value” ([1]; 3.6 to 4.5 leaf stage, 14th day after application, 7 g/ha) was 90%. The “Growth inhibition rate (%) of crabgrass, Measured value” ([1]; 3.6 to 4.5 leaf stage, 14th day after application, 15 g/ha) was 97%, the “Growth inhibition rate (%) of crabgrass, Measured value” ([1]; 3.6 to 4.5 leaf stage, 22nd day after application, 7 g/ha) was 93% and the “Growth inhibition rate (%) of crabgrass, Measured value” ([1]; 4.1 to 5.3 leaf stage, 14th day after application, 15 g/ha) was 85%. For the same compound, the “Growth inhibition rate (%) of crabgrass, Measured value” ([1]; 4.1 to 5.3 leaf stage, 20th day after application, 7 g/ha) was 85%, the “Growth inhibition rate (%) of crabgrass, Measured value” ([1]; 4.1 to 5.3 leaf stage, 20th day after application, 15 g/ha) was 97% and the “Growth inhibition rate (%) of crabgrass, Measured value” ([1]; 4.3 to 4.5 leaf stage, 20th day after application, 15 g/ha) was 80%. For the same compound, the “Growth inhibition rate (%) of velvetleaf, Measured value” ([2]; 3.3 to 4.2 leaf stage, 14th day after application, 7 g/ha) was 93%, the “Growth inhibition rate (%) of velvetleaf, Measured value” ([2]; 3.3 to 4.2 leaf stage, 14th day after application, 15 g/ha) was 97% and the “Growth inhibition rate (%) of velvetleaf, Measured value” ([2]; 3.3 to 4.2 leaf stage, 22nd day after application, 7 g/ha) was 93%. For the same compound, the “Growth inhibition rate (%) of velvetleaf, Measured value” ([2]; 3.3 to 4.2 leaf stage, 22nd day after application, 15 g/ha) was 97%, the “Growth inhibition rate (%) of velvetleaf, Measured value” ([2]; 3.5 to 4.0 leaf stage, 14th day after application, 7 g/ha) was 83% and the “Growth inhibition rate (%) of velvetleaf, Measured value” ([2]; 3.5 to 4.0 leaf stage, 14th day after application, 15 g/ha) was 95%. For the same compound, the “Growth inhibition rate (%) of velvetleaf, Measured value” ([2]; 3.5 to 4.0 leaf stage, 22nd day after application, 7 g/ha) was 90%, the “Growth inhibition rate (%) of velvetleaf, Measured value” ([2]; 3.5 to 4.1 leaf stage, 14th day after application, 7 g/ha) was 75% and the “Growth inhibition rate (%) of velvetleaf, Measured value” ([2]; 3.5 to 4.1 leaf stage, 14th day after application, 15 g/ha) was 85%. For the same compound, the “Growth inhibition rate (%) of velvetleaf, Measured value” ([2]; 3.5 to 4.1 leaf stage, 20th day after application, 7 g/ha) was 75% and the “Growth inhibition rate (%) of velvetleaf, Measured value” ([2]; 3.5 to 4.1 leaf stage, 20th day after application, 15 g/ha) was 88%.
With `CCOCc1c(S(C)(=O)=O)ccc(C(=O)c2cnn(C)c2O)c1C` [No. 2-41] the “Growth inhibition rate (%) of crabgrass, Measured value” ([1]; 3.8 to 5.2 leaf stage, 21st day after application, 3.5 g/ha) was 35%, the “Growth inhibition rate (%) of velvetleaf, Measured value” ([2]; 3.2 to 5.0 leaf stage, 14th day after application, 3.5 g/ha) was 70% and the “Growth inhibition rate (%) of velvetleaf, Measured value” ([2]; 3.2 to 5.0 leaf stage, 21st day after application, 3.5 g/ha) was 60%.
In the case of `CCn1ncc(C(=O)c2ccc(S(C)(=O)=O)c(OCCOC)c2C)c1O` [No. 2-161], the “Growth inhibition rate (%) of crabgrass, Measured value” ([1]; 3.3 to 4.2 leaf stage, 28th day after application, 3.5 g/ha) is reported as 70%, the “Growth inhibition rate (%) of crabgrass, Measured value” ([1]; 3.3 to 4.2 leaf stage, 28th day after application, 7 g/ha) is reported as 83% and the “Growth inhibition rate (%) of velvetleaf, Measured value” ([2]; 3.0 to 3.8 leaf stage, 15th day after application, 3.5 g/ha) is reported as 60%. For the same compound, the “Growth inhibition rate (%) of velvetleaf, Measured value” ([2]; 3.0 to 3.8 leaf stage, 15th day after application, 7 g/ha) was 60%, the “Growth inhibition rate (%) of velvetleaf, Measured value” ([2]; 3.0 to 3.8 leaf stage, 28th day after application, 3.5 g/ha) was 45% and the “Growth inhibition rate (%) of velvetleaf, Measured value” ([2]; 3.0 to 3.8 leaf stage, 28th day after application, 7 g/ha) was 65%.
In the case of `COCc1c(S(C)(=O)=O)ccc(C(=O)c2cnn(C)c2O)c1C` [No. 2-191], the “Growth inhibition rate (%) of crabgrass, Measured value” [1, 4] is reported as 45% and the “Growth inhibition rate (%) of velvetleaf, Measured value” [2, 5] is reported as 40%.
